A short description of the series: Measurement of logP values by HPLC on reversed phase columns (EEC directive 79/831 Annex V.A8). It is filed as physicochemical. Conditions: pH 2.7.
As to `COc1cccc(Nc2ncnc(-c3ccnc(C(=O)N(C)CC4CC4)c3)n2)c1F` [Example B275], the logP (commonly the decadic logarithm of the partition coefficient of the neutral form, usually between octanol and water) is reported as 2.7.

Turning to `COc1cccc(Nc2ncnc(-c3ccnc(C(=O)N(C)C)c3)n2)c1` [Example B276], the logP is on record as 2.01. Same read-out and setting: in the case of `COc1cccc(Nc2ncnc(-c3ccnc(C(=O)N(C)CC(C)C)c3)n2)c1` [Example B277] it was 2.90. Take `CCN(C)C(=O)c1cc(-c2ncnc(Nc3cccc(OC)c3)n2)ccn1` [Example B278]: the logP came to 2.26.

Take `COc1cccc(Nc2ncnc(-c3ccnc(C(=O)N(C)C(C)C)c3)n2)c1` [Example B279]: the logP is recorded as 2.51. With `COCCN(C)C(=O)c1cc(-c2ncnc(Nc3cccc(OC)c3)n2)ccn1` [Example B280], the logP amounted to 2.14. The compound `CCN(C)C(=S)c1cc(-c2ncnc(Nc3cccc(OC)c3)n2)ccn1` [Example B281] registered a logP of 2.78. As to `CCN(CC)C(=S)c1cc(-c2ncnc(Nc3cccc(OC)c3)n2)ccn1` [Example B282], the logP is 3.15. As for `CCCN(C)C(=S)c1cc(-c2ncnc(Nc3cccc(OC)c3)n2)ccn1` [Example B283], the logP is 3.15. `CN(CCC#N)C(=O)c1cc(-c2ncnc(Nc3cccc(C(F)F)c3)n2)ccn1` [Example B284]: the logP turned out to be 2.25. With `CCN(CC)C(=O)c1cc(-c2ncnc(Nc3cccc(C(F)F)c3)n2)ccn1` [Example B285], the logP was 2.73. The compound `CCCN(C)C(=O)c1cc(-c2ncnc(Nc3cccc(C(F)F)c3)n2)ccn1` [Example B286] showed a logP of 2.73. Regarding `CN(CC1CC1)C(=O)c1cc(-c2ncnc(Nc3cccc(C(F)F)c3)n2)ccn1` [Example B287], the logP came out at 2.82.

Consider `CN(C)C(=O)c1cc(-c2ncnc(Nc3cccc(C(F)F)c3)n2)ccn1` [Example B288], for which the logP is given as 2.17. The same measure, in the same setting: in the case of `CC(C)CN(C)C(=O)c1cc(-c2ncnc(Nc3cccc(C(F)F)c3)n2)ccn1` [Example B289] it was 3.04; in that of `CC(C)N(C)C(=O)c1cc(-c2ncnc(Nc3cccc(C(F)F)c3)n2)ccn1` [Example B290], 2.65. In turn, `CN(CCC#N)C(=O)c1cc(-c2ncnc(Nc3cccc(C#N)c3)n2)ccn1` [Example B291] had a logP of 1.99. On to `CCN(CC)C(=O)c1cc(-c2ncnc(Nc3cccc(C#N)c3)n2)ccn1` [Example B292], for which the logP came out at 2.45. On to `CCCN(C)C(=O)c1cc(-c2ncnc(Nc3cccc(C#N)c3)n2)ccn1` [Example B293], for which the logP stood at 2.45. The same measure, in the same setting: the result for `CN(C)C(=O)c1cc(-c2ncnc(Nc3cccc(C#N)c3)n2)ccn1` [Example B294] reads 1.88; that for `CC(C)CN(C)C(=O)c1cc(-c2ncnc(Nc3cccc(C#N)c3)n2)ccn1` [Example B295], 2.73; that for `CC(C)N(C)C(=O)c1cc(-c2ncnc(Nc3cccc(C#N)c3)n2)ccn1` [Example B296], 2.37. In the case of `CN(CCC#N)C(=O)c1cc(-c2ncnc(Nc3cccc(OC(F)F)c3)n2)ccn1` [Example B297], the logP stood at 2.37. Still for that read-out and setting: the result for `CCN(CC)C(=O)c1cc(-c2ncnc(Nc3cccc(OC(F)F)c3)n2)ccn1` [Example B298] reads 2.88. In turn, `CCCN(C)C(=O)c1cc(-c2ncnc(Nc3cccc(OC(F)F)c3)n2)ccn1` [Example B299] gave a logP of 2.86. The logP values of the last two compounds are within 0.2 log units of each other.

Consider `CN(C)C(=O)c1cc(-c2ncnc(Nc3cccc(OC(F)F)c3)n2)ccn1` [Example B300], for which the logP was 2.25.

In turn, `CC(C)CN(C)C(=O)c1cc(-c2ncnc(Nc3cccc(OC(F)F)c3)n2)ccn1` [Example B301] had a logP of 3.15. On to `CC(C)N(C)C(=O)c1cc(-c2ncnc(Nc3cccc(OC(F)F)c3)n2)ccn1` [Example B302], for which the logP was 2.78.

Turning to `COCC(C1CC1)N(C)C(=O)c1cc(-c2ncnc(Nc3cccc(OC(F)F)c3)n2)ccn1` (stereo not shown) [Example B303], the logP is given as 2.94. Turning to `CCCN(C)C(=O)c1cc(-c2ncnc(Nc3cccc(NC(C)=O)c3)n2)ccn1` [Example B305], the logP is listed as 1.87. For `CC(=O)Nc1cccc(Nc2ncnc(-c3ccnc(C(=O)N(C)C)c3)n2)c1` [Example B307], the logP was 1.4. The same measure, in the same setting: in the case of `CC(=O)Nc1cccc(Nc2ncnc(-c3ccnc(C(=O)N(C)CC(C)C)c3)n2)c1` [Example B308] it was 2.1; in that of `CN(CCC#N)C(=O)c1cc(-c2ncnc(Nc3ccccc3)n2)ccn1` [Example B310], 2.07. Still for that read-out and setting: the result for `CCN(CC)C(=O)c1cc(-c2ncnc(Nc3ccccc3)n2)ccn1` [Example B311] reads 2.55. Compound `CCCN(C)C(=O)c1cc(-c2ncnc(Nc3ccccc3)n2)ccn1` [Example B312] had a logP of 2.55. On the same count and under the same terms, the result for `CN(CC1CC1)C(=O)c1cc(-c2ncnc(Nc3ccccc3)n2)ccn1` [Example B313] reads 2.65; that for `CN(C)C(=O)c1cc(-c2ncnc(Nc3ccccc3)n2)ccn1` [Example B314], 1.95.

For `CC(C)CN(C)C(=O)c1cc(-c2ncnc(Nc3ccccc3)n2)ccn1` [Example B315], the lipophilicity (logP) is on record as 2.84. For the compound `CCN(C)C(=O)c1cc(-c2ncnc(Nc3ccccc3)n2)ccn1` [Example B316], the logP was 2.2. Consider `CC(C)N(C)C(=O)c1cc(-c2ncnc(Nc3ccccc3)n2)ccn1` [Example B317], for which the logP is 2.45. `CCN(C)C(=S)c1cc(-c2ncnc(Nc3ccccc3)n2)ccn1` [Example B318] returned a logP of 2.73. In turn, `CCN(CC)C(=S)c1cc(-c2ncnc(Nc3cccc(C(F)(F)F)c3)n2)ccn1` [Example B326] gave a logP of 3.78. `CCN(CC)C(=S)c1cc(-c2ncnc(Nc3ccc(F)c(C(F)F)c3)n2)ccn1` [Example B327] came in with a logP of 3.37. Turning to `CCN(CC)C(=S)c1cc(-c2ncnc(Nc3cccc(C(F)F)c3)n2)ccn1` [Example B328], the logP was found to be 3.27. With `CC(C)N(C)C(=S)c1cc(-c2ncnc(Nc3ccc(F)c(C(F)F)c3)n2)ccn1` [Example B329], the logP was 3.29. `CN(CC1CC1)C(=S)c1cc(-c2ncnc(Nc3cccc(Cl)c3)n2)ccn1` [Example B330]: the logP amounted to 3.76. Turning to `CN(CC1CC1)C(=S)c1cc(-c2ncnc(Nc3cccc(C(F)F)c3)n2)ccn1` [Example B331], the logP was determined as 3.37.

In turn, `CN(C)C(=S)c1cc(-c2ncnc(Nc3ccc(F)c(C(F)F)c3)n2)ccn1` [Example B332] had a logP of 2.73.

Consider `CCN(C)C(=S)c1cc(-c2ncnc(Nc3ccc(F)c(C(F)F)c3)n2)ccn1` [Example B333], for which the logP came to 3.04. With `CCCN(C)C(=S)c1cc(-c2ncnc(Nc3ccc(F)c(C(F)F)c3)n2)ccn1` [Example B334], the logP is 3.4. Consider `CC(C)CN(C)C(=S)c1cc(-c2ncnc(Nc3ccc(F)c(C(F)F)c3)n2)ccn1` [Example B335], for which the logP worked out at 3.71. As for `CCCN(C)C(=S)c1cc(-c2ncnc(Nc3cccc(Cl)c3)n2)ccn1` [Example B336], the logP is 3.65.

In turn, `CN(CC1CC1)C(=S)c1cc(-c2ncnc(Nc3ccccc3)n2)ccn1` [Example B337] came in with a lipophilicity (logP) of 3.23. As to `CCN(C)C(=S)c1cc(-c2ncnc(N(C(=O)COC)c3cccc(F)c3)n2)ccn1` [Example B338], the logP was 2.62. In the case of `CCN(C)C(=S)c1cc(-c2ncnc(N(C(C)=O)c3cccc(F)c3)n2)ccn1` [Example B339], the logP came to 2.73. `CN(CCC#N)C(=S)c1cc(-c2ncnc(Nc3ccc(F)c(C(F)F)c3)n2)ccn1` [Example B340] returned a logP of 2.82. Compound `CCN(C)C(=S)c1cc(-c2ncnc(Nc3cccc(C(F)F)c3)n2)ccn1` [Example B341] gave a logP of 2.94. For the compound `CN(CC(F)F)C(=S)c1cc(-c2ncnc(Nc3ccc(F)c(C(F)F)c3)n2)ccn1` [Example B342], the logP was 3.35. For the compound `CN(CCC#N)C(=S)c1cc(-c2ncnc(Nc3cccc(Cl)c3)n2)ccn1` [Example B343], the logP is listed as 3.02. For the compound `CC(=O)N(c1ccccc1)c1ncnc(-c2ccnc(C(=S)N(C)CC3CC3)c2)n1` [Example B344, N-(4-{2-[(cyclopropylmethyl)(methyl)carbamothioyl]pyridin-4-yl}-1,3,5-triazin-2-yl)-N-phenylacetamide], the chromatographic logP (as a rule, a lipophilicity value derived from retention on a column) is 3.02. `CCN(CC)C(=O)c1cc(-c2ncnc(Nc3cccc(C(F)(F)F)c3)n2)ccn1` [Example B346] registered a logP of 3.23. For the compound `CCN(CC)C(=O)c1cc(-c2ncnc(Nc3cccc(OC(F)(F)C(F)F)c3)n2)ccn1` [Example B348], the log partition coefficient (logP) is on record as 3.29. The same measure, in the same setting: the result for `CCN(CC)C(=O)c1cc(-c2ncnc(Nc3ccc(C)c(Cl)c3)n2)ccn1` [Example B349] reads 3.44; that for `CCN(CC)C(=O)c1cc(-c2ncnc(Nc3ccc(Cl)c(C(F)F)c3)n2)ccn1` [Example B352], 3.23. Consider `CCN(CC)C(=O)c1cc(-c2ncnc(Nc3ccc(F)c(C(F)F)c3)n2)ccn1` [Example B353], for which the logP was determined as 2.86. The same measure, in the same setting: in the case of `CN(C)C(=O)c1cc(-c2ncnc(Nc3cc(F)ccc3F)n2)ccn1` [Example B354] it was 2.1. Same read-out and setting: the result for `CN(C)C(=O)c1cc(-c2ncnc(Nc3cccc(C(F)(F)F)c3)n2)ccn1` [Example B355] reads 2.58; that for `CCCN(C)C(=O)c1cc(-c2ncnc(Nc3cccc(C(F)(F)F)c3)n2)ccn1` [Example B356], 3.25. `CN(CC1CC1)C(=O)c1cc(-c2ncnc(Nc3cccc(C(F)(F)F)c3)n2)ccn1` [Example B357] yielded a logP of 3.33. `CCN(C)C(=O)c1cc(-c2ncnc(Nc3cc(F)ccc3F)n2)ccn1` [Example B358]: the logP is 2.39. The compound `Cc1ccc(Nc2ncnc(-c3ccnc(C(=O)N(C)C)c3)n2)cc1Cl` [Example B359] returned a logP of 2.71. In turn, `COCCN(C)C(=O)c1cc(-c2ncnc(Nc3cccc(C(F)(F)F)c3)n2)ccn1` [Example B361] came in with a logP of 2.75. Same read-out and setting: in the case of `CC(C)CN(C)C(=O)c1cc(-c2ncnc(Nc3cccc(C(F)(F)F)c3)n2)ccn1` [Example B362] it was 3.58.

The record behind these values is patent publication US20110218188A1, “SUBSTITUTED (PYRIDYL)-AZINYLAMINE DERIVATIVES AS FUNGICIDES” (priority 2008, published 2011).
